Where “and” joins values, the source holds several entries; their conditions need not be identical. Identical values can stand only once. Inconclusive results and toxic doses are left out. Rule as the data show it: active = T/C of 150% or more; inactive = T/C below 125%.
Tested on: L1210 leukemia ip in BDF1 mice, survival T/C
Assay: NCI In Vivo Anticancer Drug Screen. Data for tumor model L1210 Leukemia (intraperitoneal) in B6D2F1 (BDF1) mice
Details: endpoint: mean survival time, higher = longer survival
Method in brief: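 Mice bearing the transplanted tumor received compound or vehicle. Survival of the treated group was divided by that of the vehicle-treated control group to give the ratio.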

[1] = dose: 25.0 mg/kg/injection, schedule: Q04DX003 (ip), vehicle: saline
[2] = dose: 50.0 mg/kg/injection, schedule: Q04DX003 (ip), vehicle: saline
[3] = dose: 100.0 mg/kg/injection, schedule: Q04DX003 (ip), vehicle: saline
[4] = dose: 100.0 mg/kg/injection, schedule: Q01DX001 (ip), vehicle: Klucel (hydroxypropylcellulose) (HPC)
[5] = dose: 200.0 mg/kg/injection, schedule: Q01DX001 (ip), vehicle: Klucel (hydroxypropylcellulose) (HPC)
[6] = dose: 100.0 mg/kg/injection, schedule: Q01DX009 (ip), vehicle: Klucel (hydroxypropylcellulose) (HPC)
[7] = dose: 200.0 mg/kg/injection, schedule: Q01DX009 (ip), vehicle: Klucel (hydroxypropylcellulose) (HPC)
[8] = dose: 400.0 mg/kg/injection, schedule: Q01DX009 (ip), vehicle: Klucel (hydroxypropylcellulose) (HPC)
[9] = dose: 100.0 mg/kg/injection, schedule: Q04DX003 (ip), vehicle: saline sonified
[10] = dose: 200.0 mg/kg/injection, schedule: Q04DX003 (ip), vehicle: saline sonified
[11] = dose: 400.0 mg/kg/injection, schedule: Q04DX003 (ip), vehicle: saline sonified
[12] = dose: 100.0 mg/kg/injection, schedule: Q04DX003 (ip), vehicle: saline with Tween-80
[13] = dose: 200.0 mg/kg/injection, schedule: Q04DX003 (ip), vehicle: saline with Tween-80
[14] = dose: 400.0 mg/kg/injection, schedule: Q04DX003 (ip), vehicle: saline with Tween-80
[15] = dose: 100.0 mg/kg/injection, schedule: Q01DX009 (ip), vehicle: saline with Tween-80
[16] = dose: 200.0 mg/kg/injection, schedule: Q01DX009 (ip), vehicle: saline with Tween-80
[17] = dose: 12.5 mg/kg/injection, schedule: Q04DX003 (ip), vehicle: saline
[18] = dose: 100.0 mg/kg/injection, schedule: Q04DX003 (ip), vehicle: Klucel (hydroxypropylcellulose) (HPC)
[19] = dose: 200.0 mg/kg/injection, schedule: Q04DX003 (ip), vehicle: Klucel (hydroxypropylcellulose) (HPC)
[20] = dose: 400.0 mg/kg/injection, schedule: Q04DX003 (ip), vehicle: Klucel (hydroxypropylcellulose) (HPC)
[21] = dose: 400.0 mg/kg/injection, schedule: Q01DX009 (ip), vehicle: saline with Tween-80

Measured: T/C

Nc1ccc(N=Nc2ccc(C(=O)Nc3ccc4cc(S(=O)(=O)O)ccc4c3)cc2)c(N)c1N=Nc1ccc(N=Nc2ccc(O)c(C(=O)O)c2)cc1
inactive: dose: 25.0 mg/kg/injection, schedule: Q01DX001 (ip), vehicle: saline 94 % of control | dose: 25.0 mg/kg/injection, schedule: Q01DX009 (ip), vehicle: saline 105 % of control | [1] 109 % of control | dose: 50.0 mg/kg/injection, schedule: Q01DX001 (ip), vehicle: saline 90 % of control | dose: 50.0 mg/kg/injection, schedule: Q01DX009 (ip), vehicle: saline 94 % of control | [2] 95 % of control | dose: 100.0 mg/kg/injection, schedule: Q01DX001 (ip), vehicle: saline 97 % of control | dose: 100.0 mg/kg/injection, schedule: Q01DX009 (ip), vehicle: saline 87 % of control | [3] 102 % of control

CCCCNC(=O)Nc1ccccc1Cl
inactive: [4] 96 % of control | [5] 99 % of control | dose: 400.0 mg/kg/injection, schedule: Q01DX001 (ip), vehicle: Klucel (hydroxypropylcellulose) (HPC) 102 % of control

CNC(=O)Nc1cc(Cl)c(OC)cc1OC
inactive: [6] 96 % of control | [7] 95 % of control | [8] 96 % of control

Cc1ccc(C(O)(c2ccccc2)C2C(c3ccccc3)N2C2CCCCC2)cc1 (stereo not drawn)
inactive: [9] 92 % of control | [10] 87 % of control | [11] 89 % of control

COC(=O)C(C)C(=O)OC
inactive: dose: 100.0 mg/kg/injection, schedule: Q01DX009 (ip), vehicle: acetone 93 % of control | dose: 100.0 mg/kg/injection, schedule: Q04DX003 (ip), vehicle: acetone 107 % of control | dose: 200.0 mg/kg/injection, schedule: Q01DX009 (ip), vehicle: acetone 97 % of control | dose: 200.0 mg/kg/injection, schedule: Q04DX003 (ip), vehicle: acetone 97 % of control | dose: 400.0 mg/kg/injection, schedule: Q01DX009 (ip), vehicle: acetone 93 % of control | dose: 400.0 mg/kg/injection, schedule: Q04DX003 (ip), vehicle: acetone 94 % of control

COC(=O)C1=C(N)CCc2ccccc21
inactive: [12] 97 % of control | [13] 103 % of control | [14] 101 % of control

CC(=O)Nc1c(C)c(NC(C)=O)c(C)c(NC(C)=O)c1C
inactive: dose: 75.0 mg/kg/injection, schedule: Q01DX001 (ip), vehicle: Klucel (hydroxypropylcellulose) (HPC) 90 % of control | dose: 75.0 mg/kg/injection, schedule: Q01DX009 (ip), vehicle: Klucel (hydroxypropylcellulose) (HPC) 94 % of control | dose: 150.0 mg/kg/injection, schedule: Q01DX001 (ip), vehicle: Klucel (hydroxypropylcellulose) (HPC) 101 % of control | dose: 300.0 mg/kg/injection, schedule: Q01DX001 (ip), vehicle: Klucel (hydroxypropylcellulose) (HPC) 92 % of control

NSc1nc2ccccc2s1
inactive: [15] 95 % of control | [9] 105 % of control | [16] 93 % of control | [10] 96 % of control | [11] 107 % of control

C[N+](C)(C)CSSC[N+](C)(C)C
inactive: [17] 92 % of control | [1] 87 % of control | [2] 93 % of control

O=C(O)c1ncn[nH]1
inactive: [6] 95 % of control | dose: 100.0 mg/kg/injection, schedule: Q04DX002 (ip), vehicle: Klucel (hydroxypropylcellulose) (HPC) 89 % of control | [18] 101 % of control | [7] 100 % of control | dose: 200.0 mg/kg/injection, schedule: Q04DX002 (ip), vehicle: Klucel (hydroxypropylcellulose) (HPC) 115 % of control | [19] 95 % of control | [8] 100 % of control | dose: 400.0 mg/kg/injection, schedule: Q04DX002 (ip), vehicle: Klucel (hydroxypropylcellulose) (HPC) 89 % of control | [20] 108 % of control

COc1ccc(-c2sc(/N=C/c3cc(OC)c(OC)c(OC)c3)c(C#N)c2C)cc1OC
inactive: [15] 98 % of control and 103 % of control | dose: 100.0 mg/kg/injection, schedule: Q04DX002 (ip), vehicle: saline with Tween-80 93 % of control and 88 % of control | [16] 100 % of control and 88 % of control | dose: 200.0 mg/kg/injection, schedule: Q04DX002 (ip), vehicle: saline with Tween-80 93 % of control | [21] 92 % of control and 87 % of control | dose: 400.0 mg/kg/injection, schedule: Q04DX002 (ip), vehicle: saline with Tween-80 94 % of control and 104 % of control

Cc1cccc(NC(=O)C2CCC(CC3CCCCC3)CC2)c1 (stereo not drawn)
inactive: dose: 50.0 mg/kg/injection, schedule: Q01DX001 (ip), vehicle: Klucel (hydroxypropylcellulose) (HPC) 89 % of control | [4] 89 % of control | [5] 87 % of control

Nc1ccc(N)c(N)n1
inactive: dose: 6.25 mg/kg/injection, schedule: Q04DX003 (ip), vehicle: saline 95 % of control | [17] 97 % of control | dose: 15.0 mg/kg/injection, schedule: Q01DX001 (ip), vehicle: saline 107 % of control | [1] 97 % of control | dose: 30.0 mg/kg/injection, schedule: Q01DX001 (ip), vehicle: saline 107 % of control | dose: 60.0 mg/kg/injection, schedule: Q01DX001 (ip), vehicle: saline 97 % of control

O=[N+]([O-])c1ccc(/C(=C/c2ccccc2)[n+]2ccccc2)cc1
inactive: dose: 10.0 mg/kg/injection, schedule: Q01DX001 (ip), vehicle: saline 106 % of control | dose: 20.0 mg/kg/injection, schedule: Q01DX001 (ip), vehicle: saline 100 % of control | dose: 40.0 mg/kg/injection, schedule: Q01DX001 (ip), vehicle: saline 100 % of control

O=S(=O)(Cl)c1cc(Cl)ccc1Cl
inactive: dose: 25.0 mg/kg/injection, schedule: Q01DX009 (ip), vehicle: Klucel (hydroxypropylcellulose) (HPC) 95 % of control | dose: 50.0 mg/kg/injection, schedule: Q01DX009 (ip), vehicle: Klucel (hydroxypropylcellulose) (HPC) 98 % of control | [6] 97 % of control

CC1CN(C(=S)Nc2cccc3ccccc23)CC(C)O1 (stereo not drawn)
inactive: [6] 100 % of control | [7] 97 % of control | [8] 95 % of control

CCOC(=O)C(OCC)c1ccccc1 (stereo not drawn)
inactive: [3] 97 % of control | dose: 200.0 mg/kg/injection, schedule: Q04DX003 (ip), vehicle: saline 101 % of control | dose: 400.0 mg/kg/injection, schedule: Q04DX003 (ip), vehicle: saline 89 % of control

CCOC(=O)CC(C(=O)OCC)C(C(=O)OCC)C(=O)OCC (stereo not drawn)
inactive: dose: 50.0 mg/kg/injection, schedule: Q01DX009 (ip), vehicle: saline with Tween-80 111 % of control | [15] 101 % of control | [16] 101 % of control

CC(=O)N(C)Nc1ccccc1
inactive: [15] 116 % of control | [12] 91 % of control | [16] 97 % of control | [13] 91 % of control | [21] 90 % of control | [14] 106 % of control

CCOC(=O)C(C)C1=CCCc2c(C)ccc(C)c21 (stereo not drawn)
inactive: [6] 91 % of control | [18] 98 % of control | [7] 94 % of control | [19] 97 % of control | [8] 94 % of control | [20] 101 % of control

O=C(O)c1cc(-c2ccc(N(CCCl)CCCl)cc2)nc2ccccc12
inactive: dose: 100.0 mg/kg/injection, schedule: Q01DX001 (ip), vehicle: other 104 % of control | dose: 200.0 mg/kg/injection, schedule: Q01DX001 (ip), vehicle: other 104 % of control | dose: 400.0 mg/kg/injection, schedule: Q01DX001 (ip), vehicle: other 96 % of control
